# How the values were obtained:
# [1] = tested on: normal human liver cells LX2; assay: MTT normal cytotoxicity, LX2; format: cell-based; settings: mean ± SD, n = 3
# Procedure: (§1) Cell suspensions were prepared in a logarithmic growth phase and seeded in 96-well plates at a density of 5000–8000 cells/well for 12 h and treated with different concentrations of kzl052 for 48 h. A 5 mg/mL MTT dye solution (Solarbio, Beijing, China) was added to all cells at 37 °C for 4 h. Then DMSO was added after removing the supernatant, and the crystals were completely dissolved by shaking at 37 °C for 15 min. The absorbance was measured at 490 nm by a microplate reader (Gene, HongKong, China). The cell proliferation inhibition rate was calculated according to the following formula: (1-experimental group OD/control group OD) × 100% with DMSO as a negative control and the WRN inhibitor (NSC 617145, GLPBIO, Montclair, CA, USA) as a positive control.
# [2] = tested on: normal human renal epithelial cells HK2; assay: MTT normal cytotoxicity, HK2; format: cell-based; settings: Epithelial cell, mean ± SD, n = 3
# Procedure: as §1
# PC3 cells [3] = assay: MTT assay, PC3 cell growth; format: cell-based; settings: Homo sapiens, PC-3, 24 h (Figure 1 legend), 48 h (method)
# Procedure: as §1
# LNCaP cells [4] = assay: MTT assay, LNCaP cell growth; format: cell-based; settings: Homo sapiens, 24 h (Figure 1 legend), 48 h (method)
# Procedure: as §1
# WRN protein [5] = target: T1, WRN protein (Homo sapiens, UniProt Q14191); assay: Cellular thermal shift assay (CETSA); format: binding; settings: PC3 cells, 100 nM, 2 h
# T1 construct: endogenous in cells; host or cells: PC3
# Procedure: PC3 cells were cultured and treated with 100 nM kzl052 for 2 h. The cells were collected into 1.5 mL EP tubes, treated with a metal bath at different temperatures (43 °C, 46 °C, 49 °C, 52 °C, and 55 °C) for 3 min, and balanced for 2 min at room temperature. The supernatant was collected by centrifugation after three cycles of liquid nitrogen in a 37 °C water bath, and then a SDS-loading buffer and denatured protein was added at 100 °C for 10 min. Finally, the content of the binding of the WRN protein was detected by Western blot.
# WRN helicase = target: T2, WRN helicase (Homo sapiens, UniProt Q14191); assay: WRN-unwinding assay (WRN enzyme activity test); format: biochemical; settings: Figure S2
# T2 construct: ICE Bioscience Inc (Beijing, China)
# Procedure: NSC617145 in WRN FI as s ay KZL -05 2 in WR N FI as s ay
# Figure S2.The results of WRN-unwinding assay. WRN enzyme activity test were
# performed by ICE Bioscience Inc (Beijing, China).
# WRN-silenced PC3 cells = assay: MTT assay in WRN-silenced PC3 cells; format: cell-based, human; settings: shWRN lentiviral transfection
# Procedure: Human prostate cancer cell lines PC3 and LNCaP cells were stored in the Biology Laboratory of the Natural Products Research Center of Guizhou Province (Guiyang, China). Cells were cultured in DMEM supplemented with 10% fetal bovine serum (BI, Nahariya, Israel) and 1% penicillin and streptomycin (Solarbio, Beijing, China) and incubated at 37 °C under 5% CO2, 95% air, and 95% humidity. The pLV-shWRN-GFP-Puro and blank control plasmids were constructed by Chongqing UNIBIO Biotechnology Co., Ltd. (Chongqing, China). The transfection steps were based on previous published studies. The inhibitory effect of the WRN protein in PC3 cells was detected by a Western blot assay.
# Cell suspensions were prepared in a logarithmic growth phase and seeded in 96-well plates at a density of 5000–8000 cells/well for 12 h and treated with different concentrations of kzl052 for 48 h. A 5 mg/mL MTT dye solution (Solarbio, Beijing, China) was added to all cells at 37 °C for 4 h. Then DMSO was added after removing the supernatant, and the crystals were completely dissolved by shaking at 37 °C for 15 min. The absorbance was measured at 490 nm by a microplate reader (Gene, HongKong, China). […]
# WRN protein [6] = assay: Western blot of WRN protein level; format: cell-based; settings: 24 h
# PC3 cells [7] = assay: Bright field and Hoechst staining, PC3; format: cell-based, human; settings: 24 h
# Procedure: (§2) PC3 and LNCaP cells were cultured and treated with different concentrations of kzl052 for 24 h and then 5 μg/mL of a Hoechst 33258 dye solution (Solarbio, Beijing, China) was added for 5–10 min after PBS washing. The fluorescence microscope (Leica, Wetzlar, Germany) was used for photo observation.
# LNCaP cells [8] = assay: Bright field and Hoechst staining, LNCaP; format: cell-based, human; settings: 24 h
# Procedure: as §2
# PC3 cells [9] = assay: γ-H2A.X immunofluorescence (DNA damage), PC3; format: cell-based, human; settings: 100 nM, 24 h
# Procedure: (§3) Cell slides were prepared and treated with 100nM kzl052 for 24 h. A 4% PFA was added for fixation after PBS washing, and then the cells were treated with Triton X-100 (Sigma-Aldrich, Saint Louis, MO, USA) for 30 min. The cells were blocked with 4% BSA for 2 h and incubated overnight at 4 °C with a γ-H2A.X primary antibody (1:1000, CST, Boston, MA, USA). A fluorescent secondary antibody (1:50; CST) was added and incubated in the dark for 2 h. After washing with PBS, a 10 μg/mL DAPI staining solution was added and treated the cells for 5–10 min. The expression and localization of γ-H2A.X was detected by inverted fluorescence microscopy (Leica, Wetzlar, Germany).
# LNCaP cells [10] = assay: γ-H2A.X immunofluorescence (DNA damage), LNCaP; format: cell-based, human; settings: 100 nM, 24 h
# Procedure: as §3
# [11] = tested on: PARP1, Bax, PLK1, RB1, Bcl-2, SRC, PTEN, PCNA, RPA, FEN1, Mre11; assay: Western blot of apoptosis, RB signal and replication fork proteins; format: cell-based
# Procedure: The cells treated by kzl052 were collected, washed by precooled PBS, and removed by centrifugation at 1000 g/5 min. A RIPA lysate (Solarbio, Beijing, China) was added for 30 min on ice. The protein concentration was determined by a BCA kit (Solarbio, Beijing, China) and denatured at 105 °C. The target proteins were isolated by SDS-PAGE gel electrophoresis and transferred to the PVDF membrane (Millipore, Bedford, MA, USA). A 5% BSA was added to block for 2 h. Primary antibodies (PNCA, RPA, FEN1, Mre11, PARP1, Bax, Bcl-2, PLK1, RB1, SRC, and PTEN; 1:1000 dilution, HUBIO, Hangzhou, China) were added and incubated at 4 °C overnight. The next day, the PVDF membrane with target proteins were washed by TBST and incubated with an HRP-labeled IgG secondary antibody (1:100,000 dilution, HUBIO, Hangzhou, China) for 2 h. After TBST washed, the target proteins were isolated and analyzed by a chemiluminescence instrument (BioRad, Hercules, CA, USA).
# [12] = Acute toxicity assay in BALB/c mice; format: in vivo; settings: mouse, in vivo; within 24 h, male BALB/c mice, one-time treatment
# Procedure: (§4) The toxicity of kzl052 in vivo was tested by an acute toxicity analysis in male BALB/c mice. A total of 20 mice were divided into 5 groups randomly. Each group was given a one-time treatment of kzl052 concentrations at 0 mg/kg, 50 mg/kg, 100 mg/kg, 200 mg/kg, and 500 mg/kg. The survival or death status of mice within 24 h was observed and recorded. The survival and death rate of mice were calculated.
# BALB/c mice = assay: Acute toxicity assay in BALB/c mice; format: in vivo; settings: 24 h; for Death Number / Survival Number: 4 mice
# Procedure: as §4
# PC3 cells [13] = assay: PC3 xenograft in BALB/c-null mice; format: in vivo; settings: 5 mg/kg intraperitoneally
# Procedure: Male BALB/c-null mice (4 weeks and 18–20 g) were purchased from SiPeiFu Biotechnology Co., Ltd. (Beijing, China). All SPF-grade mice were fed in the animal room with an IVC system barrier environment (Natural Products Research Center of Guizhou Province). The ambient temperature was maintained at 22 ± 2 °C, the humidity was 40–60%, and the light–dark cycle was maintained for 12 h to simulate the normal external environment. The mice took food and water autonomously. Xenografts were performed by subcutaneously implanting PC3 cells (1 × 10^7/0.1 mL). When the tumor size was 100 mm^3, the mice were randomly divided into 2 groups (N = 8). One group was intraperitoneally injected with kzl052 (5 mg/kg), and the other group was given the same dose of the solvent. The body weight and tumor volume was recorded every two days. The tumor volume (mm^3) = 0.5 × long diameter × short diameter^2. At the end of the experiment, the mice were euthanized and dissected to measure the weight of tumor tissue, heart, liver, spleen, kidney, and lung.
# The tumor tissue sections were placed sequentially in xylene I/10 min; xylene II/10 min; absolute ethanol I/5 min; absolute ethanol II/5 min; 95% ethanol/5 min; 90% ethanol/5 min; 80% ethanol/5 min; and 70% ethanol/5 min. Then the sections were treated in a hematoxylin staining solution (Solarbio, Beijing, China) for 3–5 min. The slices were treated by 1% hydrochloric acid alcohol for 5–10 s. The sections were treated in an eosin staining solution (Solarbio, Beijing, China) for 1–3 min. Next, the slices were dehydrated with 95% ethanol/5 min; anhydrous ethanol I/5 min; anhydrous ethanol/5 min; xylene I/5 min; and xylene II/5 min. Finally, the sections were sealed with a neutral gum (Solarbio, Beijing, China). The H&E staining results were photographed and analyzed under light microscopes (Leica, Wetzlar, Germany).
# The tissue sections were roasted, dewaxed, hydrated, antigen repaired, blocked, and incubated with a polyclonal antibody (PNCA, RPA, Mre11, PARP1, and RB1 at a 1:50 dilution, HUBIO, and γ-H2A.X at a 1:50 dilution, CST) at 4 °C overnight. The HRP-labeled IgG secondary antibody (1:1000 dilution, HUBIO, Hangzhou, China) was incubated at 37 °C for 2 h, stained with DAB, and then stained with hematoxylin (Solarbio, Beijing, China) and sealed with a neutral rubber (Solarbio, Beijing, China). It was also observed and photographed under a microscope (Leica, Wetzlar, Germany). The immunohistochemical results were statistically analyzed using image Pro plus (V6.0) software.
# T2 sequence (Q14191 whole entry): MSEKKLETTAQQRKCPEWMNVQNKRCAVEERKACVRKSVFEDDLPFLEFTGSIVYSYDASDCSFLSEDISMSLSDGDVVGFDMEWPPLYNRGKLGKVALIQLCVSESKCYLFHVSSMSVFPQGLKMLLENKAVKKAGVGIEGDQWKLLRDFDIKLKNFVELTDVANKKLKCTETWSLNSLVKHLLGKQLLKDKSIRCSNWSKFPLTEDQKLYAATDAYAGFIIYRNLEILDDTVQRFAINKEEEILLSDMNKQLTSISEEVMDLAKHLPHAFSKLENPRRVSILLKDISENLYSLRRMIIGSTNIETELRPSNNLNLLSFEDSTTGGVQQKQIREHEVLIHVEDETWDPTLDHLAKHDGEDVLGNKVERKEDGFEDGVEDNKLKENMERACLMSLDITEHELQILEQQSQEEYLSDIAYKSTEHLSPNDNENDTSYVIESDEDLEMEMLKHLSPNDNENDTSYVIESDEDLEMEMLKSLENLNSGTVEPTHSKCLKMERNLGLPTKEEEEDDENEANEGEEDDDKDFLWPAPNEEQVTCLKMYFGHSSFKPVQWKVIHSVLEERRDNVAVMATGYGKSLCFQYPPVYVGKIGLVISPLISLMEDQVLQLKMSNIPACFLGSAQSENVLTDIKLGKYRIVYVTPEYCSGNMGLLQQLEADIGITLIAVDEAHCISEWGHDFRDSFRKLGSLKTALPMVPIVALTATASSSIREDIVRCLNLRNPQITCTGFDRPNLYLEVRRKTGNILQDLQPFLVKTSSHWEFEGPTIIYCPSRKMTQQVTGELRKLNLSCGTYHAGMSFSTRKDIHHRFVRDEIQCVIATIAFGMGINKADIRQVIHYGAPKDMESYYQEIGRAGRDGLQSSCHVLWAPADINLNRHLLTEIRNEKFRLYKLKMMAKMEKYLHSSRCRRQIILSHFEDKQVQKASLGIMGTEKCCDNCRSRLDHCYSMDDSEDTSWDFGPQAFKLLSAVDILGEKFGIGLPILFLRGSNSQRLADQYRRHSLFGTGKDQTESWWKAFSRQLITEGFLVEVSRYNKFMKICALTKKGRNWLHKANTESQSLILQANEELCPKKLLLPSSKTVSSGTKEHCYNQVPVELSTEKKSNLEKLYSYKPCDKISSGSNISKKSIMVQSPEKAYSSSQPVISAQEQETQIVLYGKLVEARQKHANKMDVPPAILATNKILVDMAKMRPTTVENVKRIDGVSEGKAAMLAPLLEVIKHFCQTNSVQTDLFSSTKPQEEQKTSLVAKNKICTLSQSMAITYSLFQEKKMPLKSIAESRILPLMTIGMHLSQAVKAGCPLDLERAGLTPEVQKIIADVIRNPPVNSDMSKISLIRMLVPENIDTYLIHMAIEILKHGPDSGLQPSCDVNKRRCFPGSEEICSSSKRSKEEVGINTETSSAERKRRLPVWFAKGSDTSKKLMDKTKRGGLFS
# T1 sequence (Q14191 whole entry): as above
structure (smiles),measurement,setting,value
CC(C)(CN1C(=O)C(Cl)=C(Cl)C1=O)CN1C(=O)C(Cl)=C(Cl)C1=O [NSC 617145],IC50,[1],1810 ± 270 nM
"CC(=O)O[C@@]12CO[C@@H]1C[C@H](O)[C@@]1(C)C(=O)[C@H](O)C3=C(C)[C@@H](OC(=O)[C@H](O)[C@@H](NC(=O)OC(C)(C)C)c4ccccc4)C[C@@](O)([C@@H](OC(=O)c4ccccc4)[C@H]21)C3(C)C [Docetaxel, reference compound]",IC50,[1],410 ± 110 nM
same,IC50,[2],110 ± 10 nM
Cc1ccc2nc(C(F)(F)F)nc(N(C)c3ccc(OC(F)F)cc3)c2c1 [kzl052],IC50,PC3 cells [3],390 ± 10 nM
same,IC50,LNCaP cells [4],110 ± 10 nM
same,IC50,[1],3120 ± 90 nM
same,IC50,[2],920 ± 240 nM
same,binding to WRN protein (CETSA),WRN protein [5],bound to the WRN protein
same,effect on activity of WRN helicase,WRN helicase,did not affect the activity of WRN helicase
same,sensitivity of WRN-silenced PC3 cells,WRN-silenced PC3 cells,more insensitive
same,WRN protein expression,WRN protein [6],significantly inhibited
same,"cell death, PC3",PC3 cells [7],promoted PC3 and LNCaP cell death
same,"cell death, LNCaP",LNCaP cells [8],promoted PC3 and LNCaP cell death
same,"γ-H2A.X staining, PC3",PC3 cells [9],significantly increased
same,"γ-H2A.X staining, LNCaP",LNCaP cells [10],significantly increased
same,"expression of PARP1, Bax, PLK1, and RB1",[11],significantly up-regulated
same,"expression of PCNA, RPA, and FEN1",[11],significantly inhibited
same,protein level of Mre11,[11],up-regulated
same,"protein levels of Bcl-2, SRC, and PTEN",[11],inhibited
same,LD50 at 24 h,[12],200 to 500 mg/kg
same,Mortality Rate,BALB/c mice; 50 mg/kg,0%
same,Survival Rate,BALB/c mice; 50 mg/kg,100%
same,Death Number,BALB/c mice; 50 mg/kg,0
same,Survival Number,BALB/c mice; 50 mg/kg,4
same,Mortality Rate,BALB/c mice; 100 mg/kg,0%
same,Survival Rate,BALB/c mice; 100 mg/kg,100%
same,Death Number,BALB/c mice; 100 mg/kg,0
same,Survival Number,BALB/c mice; 100 mg/kg,4
same,Mortality Rate,BALB/c mice; 200 mg/kg,0%
same,Survival Rate,BALB/c mice; 200 mg/kg,100%
same,Death Number,BALB/c mice; 200 mg/kg,0
same,Survival Number,BALB/c mice; 200 mg/kg,4
same,Mortality Rate,BALB/c mice; 500 mg/kg,75%
same,Survival Rate,BALB/c mice; 500 mg/kg,25%
same,Death Number,BALB/c mice; 500 mg/kg,3
same,Survival Number,BALB/c mice; 500 mg/kg,1
same,H&E staining compared with the control group,PC3 cells [13],no significant difference
same,effects on mouse body weight and internal organ morphology,PC3 cells [13],minimal effects
same,"growth of PC3 cells in vivo (tumor volume, tumor quality)",PC3 cells [13]; PC3 xenograft,significantly inhibited
same,DNA replication fork complexes in tumor tissues (immunohistochemistry),"PC3 cells [13]; γ-H2A.X, PARP1, RB1, PCNA, RPA, Mre11",promoted the instability of DNA replication fork complexes
